Three compounds from patent US11840686B2, “Modulation of prekallikrein (PKK) expression” (Ionis Pharmaceuticals, Inc., priority 2013, dated 2023) can be followed below.

Strand notation (5' to 3'): a small letter for the sugar, then the base; units joined by * are phosphorothioate-linked, units joined directly phosphodiester-linked; [ ] holds rarer units or linkages, { } end groups; capitals alone tell only the bases. e = 2'-O-(2-methoxyethyl) (MOE); [5mC] = 5-methylcytosine; d = 2'-deoxy (DNA)

In one series the test system is PKK protein. In words: Plasma PKK protein levels in human KLKB1 transgenic mice (Example 7). It counts as in vivo. The settings on record: transgenic mice. A digest of the protocol:
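Human KLKB1 transgenic mice dosed subcutaneously twice weekly for 3 weeks with antisense oligonucleotides at 2.5, 5.0, 10 or 20 mg/kg/week. Plasma collected 48 hours after the final dose; PKK protein expressed as percent inhibition relative to PBS-treated controls.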

The test system of another series is Factor 12. The series can be described thus: Factor 12 activation in mouse plasma, Spectrozyme FXIIa amidolytic assay (Example 17). It counts as in vivo. The settings on record: for % F12 activation compared to the PBS control: 3 weeks, mouse plasma. Here is the method: The effect of antisense inhibition of PKK mRNA on Factor 12 protein activation was evaluated.
Group 1 consisted of 8 mice and was treated with PBS administered subcutaneously twice a week for 3 weeks. No other treatment was administered to Group 1 which served as a control group to measure Factor 12 activation.
Groups 2, 3, 4, 5, and 6 consisted of 8 mice each and were treated with 2.5 mg/kg, 5 mg/kg, 10 mg/kg, 20 mg/kg, or 40 mg/kg (corresponding to 5 mg/kg, 10 mg/kg, 20 mg/kg, 40 mg/kg, or 80 mg/kg per week), respectively of ISIS 482584 administered subcutaneously twice a week for 3 weeks. Groups 2-6 served as the treatment groups for measuring the effect of ISIS 482584 on Factor 12 activation.
At the end of the treatment period, plasma was harvested from the mice for the Spectrozyme® Factor 12a based amidolytic assay for Factor 12 in plasma.
Plasma (5 μL) was added to 85 μL of PBS with 1 μg/ml dextran sulfate (500 kDa) in a 96 well polypropelene microplate and the solution was incubated for 5 minutes at room temperature. Spectrozyme® FXIIa (10 μL of a 2 mM solution) and 0.2 mM KALLISTOP™ solution was added and the absorbance kinetic was measured at 405 nm. Factor 12 activation was measured in the linear phase of absorbance accumulation. The results are presented in Table 78 as a percentage of Factor 12 activation measured in the PBS control sample.

For the next series, the system named is C1-INH mRNA. In words: C1-INH mRNA in liver of mice treated with ISIS 461756 (Example 18). It counts as in vivo, mouse. The settings on record: liver; all groups ISIS 461756 25 mg/kg/wk; pretreatment PBS or oligonucleotide 80 mg/kg/wk sc 3 weeks. Here is the method:
Vascular permeability induced by ISIS 461756, an antisense oligonucleotide which targets murine C1 inhibitor mRNA, increases vascular permeability in mice and replicates the pathology of hereditary angioedema. The effect of ISIS 482584 on this model was evaluated.
One group of 8 mice was treated with 40 mg/kg ISIS 482584 administered subcutaneously twice a week for 3 weeks (weekly dose of 80 mg/kg). A second group of 8 mice was treated with 40 mg/kg of the control oligonucleotide, ISIS 141923, administered subcutaneously twice a week for 3 weeks (weekly dose of 80 mg/kg). A third group of 8 mice was treated with PBS administered subcutaneously twice a week for 3 weeks. On day 14, all the groups were treated with 12.5 mg/kg ISIS 461756 administered subcutaneously twice a week for 3 weeks (weekly dose of 25 mg/kg). A control group of mice was treated with PBS administered subcutaneously twice a week for 3 weeks but was not administered ISIS 461756.
At the end of the treatment period, all the groups were injected with 30 mg/kg of Evans Blue solution into the tail vein. The mice were sacrificed 30 min after the Evans Blue solution administration and colons, feet, ears, and intestines were harvested. The liver was also harvested for RNA analysis.
RNA was isolated from the liver for RT-PCR analysis of C1-INH and PKK mRNAs. The primer probe set for C1-INH is RTS3218 (forward sequence […], designated herein as SEQ ID NO: 2234; reverse sequence […], designated herein as SEQ ID NO: 2235; probe sequence […], designated herein as SEQ ID NO: 2236). The primer probe set for PKK is RTS3287 (forward sequence […], designated herein as SEQ ID NO: 2237; reverse sequence […], designated herein as SEQ ID NO: 2238; probe sequence […], designated herein as SEQ ID NO: 2239). The results are presented in Table 79 as percent inhibition compared to the PBS control not treated with ISIS 461756.

Series [1] concerns basal vascular permeability. The series can be described thus: Combination of PKK and Factor 12 antisense oligonucleotides on basal vascular permeability (Example 16). It counts as in vivo, mouse. The settings on record: positive control: PBS + HOE-140 30 μg ip. As for the experimental part:
Mice were treated with varying doses of ISIS 410944, an antisense oligonucleotide targeting Factor 12, and ISIS 482584 in a basal vascular permeability model.
Group 1 consisted of 8 mice and was treated with PBS administered subcutaneously twice a week for 3 weeks. No other treatment was administered to Group 1 which served as a control group to measure the basal levels of vascular permeability.
Group 2 consisted of 4 mice and was treated with PBS administered subcutaneously twice a week for 3 weeks. At the end of the treatment period, the mice were intraperitoneally administered 30 μg of HOE-140. Group 2 served as a positive control for inhibition of basal vascular permeability.
Groups 3, 4, 5, 6, and 7 consisted of 8 mice each and were treated with 2.5 mg/kg, 5 mg/kg, 10 mg/kg, 20 mg/kg, or 40 mg/kg (corresponding to 5 mg/kg, 10 mg/kg, 20 mg/kg, 40 mg/kg, or 80 mg/kg per week), respectively of ISIS 482584 and ISIS 410944 each administered subcutaneously twice a week for 3 weeks. Groups 3-7 served as the experimental treatment groups for examining the effect of ISIS 410944 and ISIS 482584 on basal vascular permeability.
All the groups were then injected with 30 mg/kg of Evans Blue solution in the tail vein. The mice were sacrificed 30 min after the Evans Blue solution administration and colons, feet, ears, and intestines were harvested.
The harvested tissues from the feet, colon, intestines, and ears were placed in formamide solution overnight to leach out the Evans Blue dye. The formamide solution containing feet and ear tissue was heated to 55° C. and left overnight. Higher OD values are associated with higher levels of permeability.

For “Tes Ges mCes Aes Aes Gds Tds mCds Tds mCds Tds Tds Gds Gds mCds Aes Aes Aes mCes Ae [ISIS 546254]”, the “human PKK protein inhibition” value with PKK protein (2.5 mg/kg/week s.c. twice a week for 3 weeks) turned out to be 0%; with PKK protein (5.0 mg/kg/week s.c. twice a week for 3 weeks) it was 36%; in the series on PKK protein (10 mg/kg/week s.c. twice a week for 3 weeks), 51%; in the series on PKK protein (20 mg/kg/week s.c. twice a week for 3 weeks) it was 76%.

“ISIS 482584: 5-10-5 MOE gapmer targeting murine PKK, GGCATATTGGTTTTTGGAAT; SEQ ID NO: 2244 (antisense eG*eG*e[5mC]*eA*eT*dA*dT*dT*dG*dG*dT*dT*dT*dT*dT*eG*eG*eA*eA*eT)”: the “% F12 activation compared to the PBS control” value in the series with Factor 12 (5 mg/kg/wk sc) was determined as 82%; in the series on Factor 12 (10 mg/kg/wk sc) it was 63%; with Factor 12 (20 mg/kg/wk sc) it was 47%; in the series on Factor 12 (40 mg/kg/wk sc) it was 24%; in the series on Factor 12 (80 mg/kg/wk sc), 14%. The “activation of Factor 12” value in the series on Factor 12 (mouse plasma after 3 weeks s.c. treatment) is “decreased activation of Factor 12”. Moreover, the “Percent inhibition of C1-INH mRNA expression compared to the untreated PBS control” value in the series with C1-INH mRNA is 77%.

Regarding `NC(N)=NCCC[C@@H](N)C(=O)N[C@@H](CCCN=C(N)N)C(=O)N1CCC[C@H]1C(=O)N1C[C@H](O)C[C@H]1C(=O)NCC(=O)N[C@@H](Cc1cccs1)C(=O)N[C@@H](CO)C(=O)N1Cc2ccccc2C[C@@H]1C(=O)N1[C@H](C(=O)N[C@@H](CCCN=C(N)N)C(=O)O)C[C@@H]2CCCC[C@@H]21` [HOE-140, Icatibant, reference compound], in series [1], the “OD600 nm of Evans Blue dye, Colon” value turned out to be 0.14; the “OD600 nm of Evans Blue dye, Ears” value came out at 0.008; the “OD600 nm of Evans Blue dye, Feet” value is recorded as 0.04; the “OD600 nm of Evans Blue dye, Intestines” value is reported as 0.08.
